These compounds were tested against T1, Melanocortin receptor 4 (Homo sapiens, UniProt P32245) (assay: Displacement of [125I]NDP-MSH from human MC4R expressed in HEK293 cells).
T1 sequence (P32245 whole entry): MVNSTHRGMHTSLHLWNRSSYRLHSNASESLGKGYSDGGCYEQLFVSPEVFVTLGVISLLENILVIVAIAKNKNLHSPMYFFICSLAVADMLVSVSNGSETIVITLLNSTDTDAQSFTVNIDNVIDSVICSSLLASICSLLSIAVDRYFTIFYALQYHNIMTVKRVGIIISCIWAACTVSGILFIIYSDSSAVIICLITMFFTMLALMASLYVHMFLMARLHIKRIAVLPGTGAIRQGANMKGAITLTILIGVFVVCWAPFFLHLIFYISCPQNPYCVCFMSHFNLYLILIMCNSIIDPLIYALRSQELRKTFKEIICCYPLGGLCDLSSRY
Format: cell-based
Compound CC(C)C[C@H](N)c1cc(C(F)(F)F)ccc1N1CCN(C(=O)C2C(=O)OCC2c2ccc(Cl)cc2)CC1 (some centres not stated) has a Ki of 0.26 µM. With CC(C)C[C@H](N)c1cc(Cl)ccc1N1CCN(C(=O)[C@H]2CCO[C@@H]2c2ccc(Cl)cc2)CC1 the Ki was 0.28 µM. CC(C)C[C@H](NC(=O)CCN(C)C)c1cc(C(F)(F)F)ccc1N1CCN(C(=O)[C@H]2CCO[C@@H]2c2ccc(Cl)cc2)CC1 showed a Ki of 0.2 µM. For Cc1ccc(N2CCN(C(=O)[C@@H]3OCC[C@@H]3c3ccc(Cl)cc3)CC2)c([C@@H](NC(=O)CCN(C)C)C(C)C)c1, the Ki was 0.01 µM. With CNCCC(=O)N[C@@H](CC(C)C)c1cc(C(F)(F)F)ccc1N1CCN(C(=O)[C@H]2CSC[C@@H]2c2ccc(Cl)cc2)CC1 the Ki was 0.17 µM. Work on CC(C)[C@H](NC(=O)CCN(C)C)c1cccc(F)c1N1CCN(C(=O)[C@H]2CS(=O)(=O)C[C@@H]2c2ccc(Cl)cc2)CC1 yielded a Ki of 0.38 µM. For CC(C)[C@H](NC(=O)CCN(C)C)c1cccc(F)c1N1CCN(C(=O)[C@@H]2COC[C@@H]2c2ccc(Cl)cc2)CC1, the Ki was 0.028 µM. With Cc1ccc(N2CCN(C(=O)[C@H]3CCO[C@@H]3c3ccc(Cl)cc3)CC2)c([C@@H](N)C(C)C)c1 the Ki was 0.41 µM. With CC(C)C[C@H](N)c1cc(C(F)(F)F)ccc1N1CCN(C(=O)C2COCC2c2ccc(Cl)cc2)CC1 (some centres not stated) the Ki was 0.28 µM. CC(C)C[C@H](N)c1cc(C(F)(F)F)ccc1N1CCN(C(=O)[C@H]2C[S+]([O-])C[C@@H]2c2ccc(Cl)cc2)CC1 (some centres not stated) was tested, and the Ki was 0.12 µM. Compound CC(C)C[C@H](NC(=O)CCN)c1cc(C(F)(F)F)ccc1N1CCN(C(=O)C2CC(=O)OC2c2ccc(Cl)cc2)CC1 (some centres not stated) has a Ki of 0.11 µM. CC(C)[C@H](N)c1cccc(F)c1N1CCN(C(=O)C2COCC2c2ccc(Cl)cc2)CC1 (some centres not stated) gave a Ki of 0.79 µM. Work on CNCC(=O)N[C@@H](CC(C)C)c1cc(C(F)(F)F)ccc1N1CCN(C(=O)[C@H]2CSC[C@@H]2c2ccc(Cl)cc2)CC1 yielded a Ki of 0.25 µM. CC(C)C[C@H](NC(=O)CCN(C)C)c1cc(Cl)ccc1N1CCN(C(=O)[C@H]2CCO[C@@H]2c2ccc(Cl)cc2)CC1 gave a Ki of 0.074 µM. Compound CC(C)C[C@H](NC(=O)CCN)c1cc(C(F)(F)F)ccc1N1CCN(C(=O)C2C(=O)OCC2c2ccc(Cl)cc2)CC1 (some centres not stated) has a Ki of 0.18 µM. CC(C)C[C@H](N)c1cc(C(F)(F)F)ccc1N1CCN(C(=O)[C@H]2CCO[C@@H]2c2ccc(Cl)cc2)CC1 showed a Ki of 0.33 µM. With CC(C)[C@H](N)c1cccc(F)c1N1CCN(C(=O)[C@H]2CCO[C@@H]2c2ccc(Cl)cc2)CC1 the Ki was 1.1 µM. For CC(C)C[C@H](NC(=O)CCN(C)C)c1cc(C(F)(F)F)ccc1N1CCN(C(=O)C2COCC2c2ccc(Cl)cc2)CC1 (some centres not stated), the Ki was 0.071 µM. Compound CNCC(=O)N[C@@H](CC(C)C)c1cc(C(F)(F)F)ccc1N1CCN(C(=O)[C@H]2CS(=O)(=O)C[C@@H]2c2ccc(Cl)cc2)CC1 has a Ki of 0.18 µM. For CC(C)C[C@H](NC(=O)[C@@H](C)N)c1cc(C(F)(F)F)ccc1N1CCN(C(=O)[C@H]2CS(=O)(=O)C[C@@H]2c2ccc(Cl)cc2)CC1, the Ki was 0.1 µM. CC(C)C[C@H](N)c1cc(C(F)(F)F)ccc1N1CCN(C(=O)[C@H]2CSC[C@@H]2c2ccc(Cl)cc2)CC1 showed a Ki of 0.28 µM. Compound Cc1ccc(N2CCN(C(=O)[C@H]3OCC[C@@H]3c3ccc(Cl)cc3)CC2)c([C@@H](NC(=O)CCN(C)C)C(C)C)c1 has a Ki of 0.043 µM. CNCCC(=O)N[C@@H](CC(C)C)c1cc(C(F)(F)F)ccc1N1CCN(C(=O)[C@H]2CS(=O)(=O)C[C@@H]2c2ccc(Cl)cc2)CC1 gave a Ki of 0.19 µM. Cc1ccc(N2CCN(C(=O)[C@@H]3CCO[C@@H]3c3ccc(Cl)cc3)CC2)c([C@@H](NC(=O)CCN(C)C)C(C)C)c1 showed a Ki of 0.12 µM. CC(C)[C@H](N)c1cccc(F)c1N1CCN(C(=O)[C@@H]2CCO[C@@H]2c2ccc(Cl)cc2)CC1 was tested, and the Ki was 2.1 µM. Work on CC(C)C[C@H](NC(=O)CCN(C)C)c1cc(Cl)ccc1N1CCN(C(=O)[C@@H]2CCO[C@@H]2c2ccc(Cl)cc2)CC1 yielded a Ki of 0.087 µM. Work on CC(C)C[C@H](NC(=O)CCN(C)C)c1cc(C(F)(F)F)ccc1N1CCN(C(=O)[C@H]2CS(=O)(=O)C[C@@H]2c2ccc(Cl)cc2)CC1 yielded a Ki of 0.17 µM. CC(C)[C@H](NC(=O)CCN(C)C)c1cccc(F)c1N1CCN(C(=O)[C@H]2COC[C@@H]2c2ccc(Cl)cc2)CC1 showed a Ki of 0.03 µM. Work on CC(C)C[C@H](NC(=O)CCN(C)C)c1cc(C(F)(F)F)ccc1N1CCN(C(=O)C2C(=O)OCC2c2ccc(Cl)cc2)CC1 (some centres not stated) yielded a Ki of 0.29 µM. With CC(C)[C@H](NC(=O)CCN(C)C)c1cccc(F)c1N1CCN(C(=O)C2COCC2c2ccc(Cl)cc2)CC1 (some centres not stated) the Ki was 0.04 µM. For CC(C)C[C@H](N)c1cc(C(F)(F)F)ccc1N1CCN(C(=O)[C@H]2CS(=O)(=O)C[C@@H]2c2ccc(Cl)cc2)CC1, the Ki was 0.038 µM. CC(C)C[C@H](NC(=O)CCN(C)C)c1cc(C(F)(F)F)ccc1N1CCN(C(=O)[C@H]2C[S+]([O-])C[C@@H]2c2ccc(Cl)cc2)CC1 (some centres not stated) was tested, and the Ki was 0.23 µM. CC(C)C[C@H](NC(=O)[C@@H](C)N)c1cc(C(F)(F)F)ccc1N1CCN(C(=O)[C@H]2CSC[C@@H]2c2ccc(Cl)cc2)CC1 was tested, and the Ki was 0.13 µM. For Cc1ccc(N2CCN(C(=O)[C@@H]3CCO[C@@H]3c3ccc(Cl)cc3)CC2)c([C@@H](N)C(C)C)c1, the Ki was 0.59 µM. In the case of CC(C)[C@H](NC(=O)CCN(C)C)c1cccc(F)c1N1CCN(C(=O)[C@@H]2CS(=O)(=O)C[C@H]2c2ccc(Cl)cc2)CC1, the Ki is reported as 0.037 µM. Compound CC(C)C[C@H](NC(=O)CCN(C)C)c1cc(C(F)(F)F)ccc1N1CCN(C(=O)[C@H]2CSC[C@@H]2c2ccc(Cl)cc2)CC1 has a Ki of 0.13 µM. For CC(C)[C@H](NC(=O)CCN(C)C)c1cccc(F)c1N1CCN(C(=O)[C@@H]2CCO[C@@H]2c2ccc(Cl)cc2)CC1, the Ki was 0.48 µM.

What follows are compounds tested against T1, Melanocortin receptor 4 (assay: Antagonist activity at human MC4R assessed as inhibition of alpha MSH-stimulated cAMP release by cell based assay).
Format: functional
Cc1ccc(N2CCN(C(=O)[C@@H]3OCC[C@@H]3c3ccc(Cl)cc3)CC2)c([C@@H](NC(=O)CCN(C)C)C(C)C)c1 showed an IC50 of 0.53 µM. In the case of CC(C)C[C@H](N)c1cc(C(F)(F)F)ccc1N1CCN(C(=O)[C@H]2CS(=O)(=O)C[C@@H]2c2ccc(Cl)cc2)CC1, the IC50 is reported as 0.69 µM.

These compounds were tested against T1, Melanocortin receptor 4 (assay: Agonist activity at MC4R).
Format: functional
Compound CC(C)(C)N1C[C@H](C(=O)N2CCC(CN3CCOC3=O)(C3CCCCC3)CC2)[C@@H](c2ccc(F)cc2F)C1 has an EC50 of 0.002 µM.

Each compound was assayed against T1, Melanocortin receptor 4 (assay: Binding affinity at MC4R).
Work on CC(C)(C)N1C[C@H](C(=O)N2CCC(CN3CCOC3=O)(C3CCCCC3)CC2)[C@@H](c2ccc(F)cc2F)C1 yielded an IC50 of 0.014 µM.

What follows are compounds tested against T1, Melanocortin receptor 4 (assay: Binding affinity at human MC4R).
CC(C)C[C@H](N)c1cc(C(F)(F)F)ccc1N1CCN(C(=O)C(C)(C)Cc2ccc(Cl)cc2)CC1 showed a Ki of 0.81 µM.
